Where two headings read alike, the source gives them in different places.
Assays:
[1] = target: T1, GPR39 receptors on m39-20 cell lines (Mus musculus, UniProt Q5U431, T447P); test: FLIPR calcium imaging on m39-20 cell lines stably expressing murine-derived GPR39; format: cell-based; conditions: for intracellular calcium signals in m39-20 cell lines: FIG. 1
T1 construct: P2A-mCherry (C); expressed in transfected cells
T1 sequence (Q5U431 1-456 T447P): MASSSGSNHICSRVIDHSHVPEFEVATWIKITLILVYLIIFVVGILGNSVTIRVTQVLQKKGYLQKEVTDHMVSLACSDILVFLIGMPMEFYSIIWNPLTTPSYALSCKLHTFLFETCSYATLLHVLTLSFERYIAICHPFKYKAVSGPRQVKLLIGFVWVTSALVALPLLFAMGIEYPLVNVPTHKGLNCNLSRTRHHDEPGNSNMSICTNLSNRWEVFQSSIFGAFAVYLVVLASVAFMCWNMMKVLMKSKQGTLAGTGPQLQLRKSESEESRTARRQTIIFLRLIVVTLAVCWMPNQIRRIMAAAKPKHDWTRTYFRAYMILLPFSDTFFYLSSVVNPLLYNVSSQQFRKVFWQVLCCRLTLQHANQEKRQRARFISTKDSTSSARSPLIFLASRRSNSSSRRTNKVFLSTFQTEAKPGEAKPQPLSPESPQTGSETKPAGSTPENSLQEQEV
Description: Intracellular calcium imaging is a routine technique to study cell functions, the basic principle of which is to detect the concentration of the calcium ion in tissues or cells using a calcium indicator, thereby reflecting certain reactions in the tissues or cells. In the present application, the intracellular calcium released from a cell line that stably or transiently expresses GPR39 is detected using Fluo8-AM, a calcium fluorescent indicator, so as to determine the activation of the GPR39 receptor by the bile acid and derivative thereof.
HEK293T cells (purchased from ATCC) were seeded in a 6-well plate (coming Co.) at an appropriate density (about 0.5-2×10^5/well). When the cell density reached above 30%, the plasmid PLVXK-mGPR39-P2A-mCherry was transfected with Lipofectamine 3000 (Invitrogen) at a concentration of 2 μg per well. The cells were passaged 24 hours after transfection, the puromycin (gibco) was added into the medium at a concentration of 2 μg/mL for antibiotic screening of cells. After 2-4 days of continuous screening, the cells screened for puromycin resistance were trypsinized and screened by flow cytometry for monoclones with red fluorescence. And these monoclones were seeded in a 96-well plate and cultured in a medium without puromycin for around 10 days. Cell colonies with red fluorescence were sorted under a fluorescence microscope, trypsinized and then passaged and expanded in a 6-well plate. Cell lines m39-20 stably expressing murine-derived GPR39 were obtained through the above methods.
Calcium dye Fluo8-AM (ATT bioquest Co.) was dissolved in DMSO solvent to formulate a stock solution of 1 μg/μL. […] After then, the calcium dye working solution was replaced with the 4K solution (50 μL per well), and acclimated for 5 min at room temperature for the subsequent calcium imaging experiment.
Bile acids and derivatives thereof as listed in Table 1 below were dissolved in dimethyl sulfoxide (DMSO, Sigma Co.) solvent to formulate a stock solution of 50 mM, which was stored at −20° C. During calcium imaging with FLIPR, the drug was diluted with the above 4K solution into a working concentration of 400 μM, and packaged into another 96-well plate. […] The instrument parameters were set so that 50 μL of the drug solution may be added into the culture wells within 2 s. The fluorescence recording result within the first 30 seconds was used as the baseline value. The FLIPR robot arm was programmed to automatically add bile acids and derivatives thereof into the cell sample culture wells at the 31st second. 1% of DMSO solvent was used as the blank control.
After that, the calcium dye working solution was replaced with a 4K solution containing 4 μM zinc ions (50 μL per well), followed by acclimation for 5 min at room temperature.

[2] = target: T2, Ghrelin receptor (GHSR, NP_940799.1) (Homo sapiens, UniProt Q92847); test: Confocal calcium imaging of Ghrelin receptor family, overexpressed in HEK293T cells; format: cell-based; conditions: 200 μM
T2 construct: mCherry; host or cells: HEK293T, transient
Procedure: (§1) According to the transient transfection method of Example 5.2, the 6 receptors of Ghrelin family except GPR39 were overexpressed in HEK293T cells respectively (the expression vectors for these 6 receptors came from the research group of Rao Yi, Peking University), and calcium dye was incubated. An inverted laser confocal microscope (leica Co.) was used to detect the activation of the 6 receptors of Ghrelin family by LCAS. The specific operations were as below: placing the cells to be detected on the microscope stage, detecting the fluorescence signal value of the calcium dye Fluo8 with the 488 nm channel, and detecting the fluorescence signal value of mCherry with the 543 nm channel. All receptors fused to express the red fluorescence protein mCherry, and the expression of receptors was determined by detecting the red fluorescence emitted from mCherry.

[3] = target: T3, Motilin receptor (MLNR, NP_001498.1) (Homo sapiens, UniProt O43193); test: as above; format: cell-based; conditions: 200 μM
T3 construct: mCherry; host or cells: HEK293T, transient
Procedure: as §1

[4] = target: T4, Neuromedin-U receptor 2 (NMUR2, NP_064552.3) (Homo sapiens, UniProt Q9GZQ4); test: as above; format: cell-based; conditions: 200 μM
T4 construct: mCherry; host or cells: HEK293T, transient
Procedure: as §1

[5] = target: T5, Neurotensin receptor 2 (NTSR2, NP_036476.2) (Homo sapiens, UniProt O95665); test: as above; format: cell-based; conditions: 200 μM
T5 construct: mCherry; host or cells: HEK293T, transient
Procedure: as §1

GPR39 = target: T6, GPR39 (Homo sapiens, UniProt O43194); conditions: cell line that transiently or stably expresses GPR39; read-out: phosphoinositide accumulation EC50; cited from earlier work
T6 sequence (O43194 1-453): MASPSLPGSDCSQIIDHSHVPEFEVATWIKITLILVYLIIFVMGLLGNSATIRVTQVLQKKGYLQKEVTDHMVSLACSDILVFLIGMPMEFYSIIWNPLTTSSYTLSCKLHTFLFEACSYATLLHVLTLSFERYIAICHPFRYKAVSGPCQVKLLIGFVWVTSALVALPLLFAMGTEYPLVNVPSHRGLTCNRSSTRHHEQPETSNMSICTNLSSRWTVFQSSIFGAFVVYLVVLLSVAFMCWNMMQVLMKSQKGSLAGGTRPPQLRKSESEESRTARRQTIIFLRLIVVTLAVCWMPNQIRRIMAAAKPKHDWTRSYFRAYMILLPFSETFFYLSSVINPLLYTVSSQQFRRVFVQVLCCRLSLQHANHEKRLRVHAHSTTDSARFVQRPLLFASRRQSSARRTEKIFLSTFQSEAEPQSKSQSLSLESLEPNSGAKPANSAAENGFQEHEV

T2 sequence (Q92847 whole entry): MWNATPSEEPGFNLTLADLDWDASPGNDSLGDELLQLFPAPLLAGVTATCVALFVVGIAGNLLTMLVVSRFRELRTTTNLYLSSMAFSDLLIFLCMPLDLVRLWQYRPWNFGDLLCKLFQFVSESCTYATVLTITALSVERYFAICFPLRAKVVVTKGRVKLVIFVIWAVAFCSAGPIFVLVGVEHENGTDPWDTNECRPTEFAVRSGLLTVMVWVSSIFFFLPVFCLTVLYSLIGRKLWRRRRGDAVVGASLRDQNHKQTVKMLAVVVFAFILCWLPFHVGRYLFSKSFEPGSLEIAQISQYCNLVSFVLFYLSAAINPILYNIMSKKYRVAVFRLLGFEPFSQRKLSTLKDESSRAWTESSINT
T5 sequence (O95665 whole entry): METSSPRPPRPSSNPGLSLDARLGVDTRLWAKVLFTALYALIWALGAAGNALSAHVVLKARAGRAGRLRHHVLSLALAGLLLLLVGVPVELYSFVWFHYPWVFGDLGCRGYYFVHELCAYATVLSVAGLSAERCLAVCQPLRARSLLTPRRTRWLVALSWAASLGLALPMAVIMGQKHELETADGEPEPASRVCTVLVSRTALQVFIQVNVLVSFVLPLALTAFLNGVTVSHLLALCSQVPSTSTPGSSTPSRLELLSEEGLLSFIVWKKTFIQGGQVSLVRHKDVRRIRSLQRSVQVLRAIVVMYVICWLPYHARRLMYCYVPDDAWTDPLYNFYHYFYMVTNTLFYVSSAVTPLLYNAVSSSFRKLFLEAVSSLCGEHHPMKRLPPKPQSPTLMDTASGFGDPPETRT
T4 sequence (Q9GZQ4 whole entry): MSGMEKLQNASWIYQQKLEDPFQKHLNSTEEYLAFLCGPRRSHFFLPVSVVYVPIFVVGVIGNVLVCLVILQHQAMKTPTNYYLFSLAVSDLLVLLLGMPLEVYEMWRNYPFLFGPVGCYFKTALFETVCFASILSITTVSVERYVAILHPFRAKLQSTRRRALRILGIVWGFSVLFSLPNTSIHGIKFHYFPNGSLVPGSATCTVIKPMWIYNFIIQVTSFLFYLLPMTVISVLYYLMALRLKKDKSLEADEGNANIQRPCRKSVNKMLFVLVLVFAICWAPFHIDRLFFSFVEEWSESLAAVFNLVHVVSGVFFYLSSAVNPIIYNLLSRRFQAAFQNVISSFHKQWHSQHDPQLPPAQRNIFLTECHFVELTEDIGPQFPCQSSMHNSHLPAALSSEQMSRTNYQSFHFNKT
T3 sequence (O43193 whole entry): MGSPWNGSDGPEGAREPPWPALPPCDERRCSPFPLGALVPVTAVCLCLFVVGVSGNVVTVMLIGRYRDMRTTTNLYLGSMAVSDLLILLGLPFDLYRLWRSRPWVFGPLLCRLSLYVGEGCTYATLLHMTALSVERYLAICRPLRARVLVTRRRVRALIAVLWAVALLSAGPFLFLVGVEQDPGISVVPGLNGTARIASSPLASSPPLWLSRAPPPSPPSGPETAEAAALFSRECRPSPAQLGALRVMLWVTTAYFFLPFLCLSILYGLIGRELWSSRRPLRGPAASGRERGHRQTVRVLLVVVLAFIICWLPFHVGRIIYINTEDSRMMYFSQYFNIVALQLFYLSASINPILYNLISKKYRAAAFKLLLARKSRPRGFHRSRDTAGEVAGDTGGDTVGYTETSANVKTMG

**Q.** For `C[C@H](CCC(=O)O)[C@H]1CC[C@H]2[C@@H]3CC[C@@H]4C[C@H](OS(=O)(=O)O)CC[C@]4(C)[C@H]3CC[C@]12C` [LCAS], which EC50 ([1]; Bile acid + 4 μM zinc ions EC50, m39-20 cells, 4 μM zinc ions) is on record?
**A.** The EC50 was 0.88 ± 0.16 µM.

**Q.** And the “intracellular calcium signals in m39-20 cell lines” value [1]?
**A.** Its value is “varying extents of intracellular calcium signals”.

**Q.** And the “intracellular calcium signaling response in m39-20 cells” value ([1]; absence of zinc ions)?
**A.** Its value is “strong intracellular calcium signaling response”.

**Q.** And the “Only bile acid Efficacy” value ([1]; activation efficacy, m39-20 cells, no zinc ions)?
**A.** The value was 111.1 ± 3.9%.

**Q.** And the “change of activation efficacy after the addition of zinc ions” value ([1]; m39-20 cells, Table 1, FIG. 2)?
**A.** Its value is “increases slightly”.

**Q.** And the “activation capacity on GPR39 receptors among the bile acids” value ([1]; m39-20 cells, dose curves)?
**A.** Its value is “strongest activation capacity”.

**Q.** What about the EC50 ([1]; m39-20 cells, no zinc ions, read-out: Only bile acid EC50) of the same compound?
**A.** The EC50 was 41 ± 4.5 µM.

**Q.** What about the EC50 ([1]; m39-20 cells, zinc ions 0 μM, read-out: EC50) of the same compound?
**A.** The EC50 was 31 ± 2.1 µM.

**Q.** What about the EC50 ([1]; m39-20 cells, zinc ions 0.05 μM, read-out: EC50) of the same compound?
**A.** The EC50 was 30.7 ± 2.4 µM.

**Q.** What about the EC50 ([1]; m39-20 cells, zinc ions 0.1 μM, read-out: EC50) of the same compound?
**A.** The EC50 was 30.6 ± 2 µM.

**Q.** What about the EC50 ([1]; m39-20 cells, zinc ions 0.2 μM, read-out: EC50) of the same compound?
**A.** Its EC50 is 25.4 ± 1.1 µM.

**Q.** And the EC50 ([1]; m39-20 cells, zinc ions 0.4 μM, read-out: EC50)?
**A.** Its EC50 is 20.1 ± 0.67 µM.

**Q.** And the EC50 ([1]; m39-20 cells, zinc ions 1 μM, read-out: EC50)?
**A.** The EC50 was 6.4 ± 0.67 µM.

**Q.** And the EC50 ([1]; m39-20 cells, zinc ions 2 μM, read-out: EC50)?
**A.** The EC50 was 1.9 ± 0.03 µM.

**Q.** What about the EC50 ([1]; m39-20 cells, zinc ions 4 μM, read-out: EC50) of the same compound?
**A.** The EC50 was 0.7 ± 0.03 µM.

**Q.** And the “activation of GHSR (calcium imaging)” value [2]?
**A.** Its value is “cannot be activated”.

**Q.** What about the “activation of MLNR (calcium imaging)” value [3] of the same compound?
**A.** Its value is “cannot be activated”.

**Q.** And the “activation of NMUR2 (calcium imaging)” value [4]?
**A.** Its value is “cannot be activated”.

**Q.** What about the “activation of NTSR2 (calcium imaging)” value [5] of the same compound?
**A.** The value was “cannot be activated”.

**Q.** With `[Zn+2]` [Zinc ions, reference compound] as the compound, how does the “intracellular calcium signals in m39-20 cell lines” value [1] read?
**A.** The value was “inducing intracellular calcium signals”.

**Q.** And the EC50 (GPR39)?
**A.** The EC50 was 22 µM.

Source: patent publication US12569502B2, “Use of bile acids and derivatives thereof in preparation of GPR39 agonist” (PEKING UNIVERSITY, priority 2019, dated 2026)
